What all share (format): functional
Assay [1] has as its system Rattus norvegicus. Description: The compound was tested in vivo for the iron clearing activity against non-iron-overloaded-bile duct cannulated rat, at a concentration of 150 uM/Kg.
The subject of assay [2] is Monkey. The assay is described as follows: The compound was tested in vivo for the iron clearing activity against non -iron-overloaded Cebus apella monkey at a concentration of 150 uM/Kg.
For assay [3], the system named is Monkey. Description: The compound was tested in vivo for the iron clearing activity against non -iron-overloaded Cebus apella monkey at a concentration of 150 uM/Kg, with distilled water.
The test system of assay [4] is Monkey. Description: The compound was tested in vivo for the iron clearing activity against non -iron-overloaded Cebus apella monkey at a concentration of 300 uM/Kg with distilled water.
Assay [5] has as its system Monkey. Description: The compound was tested in vivo for the iron clearing activity against non -iron-overloaded Cebus apella monkey at a concentration of 300 uM/Kg.
The subject of assay [6] is Monkey. The assay is described as follows: The compound was tested in vivo for the iron clearing activity against non-iron-overloaded Cebus apella monkey, values in parentheses indicate the % breakdown of iron excreted in stool and urine, at a concentration of 75 uM/Kg.
In assay [7] the test system is Monkey. The assay is described as follows: The compound was tested in vivo for the iron clearing activity against non -iron-overloaded Cebus apella monkey at a concentration of 300 uM/Kg.
In assay [8] the test system is Monkey. The assay is described as follows: The compound was tested in vivo for the iron clearing activity against non-iron-overloaded Cebus apella monkey, values in parentheses indicate the % breakdown of iron excreted in stool and urine, at a concentration of 300 uM/Kg.
Assay [9] relates to Monkey. The assay is described as follows: The compound was tested in vivo for the iron clearing activity against non -iron-overloaded Cebus apella monkey at a concentration of 75 uM/Kg.
The test system of assay [10] is Monkey. The assay is described as follows: The compound was tested in vivo for the iron clearing activity against non -iron-overloaded Cebus apella monkey at a concentration of 150 uM/Kg.
Assay [11] concerns Rattus norvegicus. Description: The compound was tested in vivo for the iron clearing activity against non-iron-overloaded-bile duct cannulated rat, at a concentration of 150 uM/Kg(po).

Some results are limits rather than exact numbers.

Turning to `O=C(O)[C@@H]1CSC(c2ncccc2O)=N1`, the Efficiency is reported as 3.9% with Rattus norvegicus [1] and 0.5% in the assay with Monkey [2].
In the case of `O=C(O)[C@H]1CSC(c2ccc(O)cc2O)=N1`, the Efficiency with Monkey [3] came out at 5.6%; in the assay on Monkey [4] it was 4.8%; with Monkey [5], 5.6%; in the assay with Rattus norvegicus [1], 2.4%; in the assay on Monkey [2], 4.2%.
For the molecule `C[C@]1(C(=O)O)CSC(c2ccccc2O)=N1`, the Efficiency with Rattus norvegicus [1] was 2.7%; in the assay with Monkey [6] it was 21.5%; with Monkey [7] it was 13.1%.
Take `O=C(O)[C@@H]1CSC(c2ccccc2O)=N1`: the Efficiency in the assay on Rattus norvegicus [1] stood at 4.2%; in the assay on Monkey [8], 8.2%.
As for `O=C(O)[C@H]1CSC(c2ncccc2O)=N1`, the Efficiency was determined as 2.4% in the assay with Rattus norvegicus [1], 8% in the assay with Monkey [7] and 4.8% in the assay on Monkey [2].
As for `C[C@]1(C(=O)O)CSC(c2ccc(O)cc2O)=N1` [DEFERITRIN], the Efficiency is 17.7% in the assay on Monkey [9], less than 0.5% with Rattus norvegicus [1] and 13.4% in the assay with Monkey [10].
In the case of `O=C(O)[C@H]1CSC(c2ccccc2O)=N1`, the Efficiency is reported as 1.4% in the assay with Rattus norvegicus [1] and 12.4% in the assay with Monkey [7].
In the case of `C[C@]1(C(=O)O)CSC(c2ncccc2O)=N1` [DESFERRITHIOCIN], the Efficiency in the assay with Rattus norvegicus [1] worked out at 5.5%; in the assay on Monkey [2] it was 16.1%.
Regarding `O=C(O)[C@@H]1CSC(c2ccc(O)cc2O)=N1`, the Efficiency in the assay with Rattus norvegicus [11] is reported as less than 0.5%; in the assay with Monkey [10], 1.7%.

The record behind these values is ChEMBL document CHEMBL1132145, “Effects of C-4 stereochemistry and C-4' hydroxylation on the iron clearing efficiency and toxicity of desferrithiocin analogues” (1999).
